The values that follow come from patent publication US10538516B2, “Oxadiazole derivative and pharmaceutical containing same” (National Center for Geriatrics and Gerontology, priority 2015, dated 2020).

In one assay the target is T1, GAβ-dependent amyloid fibril formation (Human Aβ1-40 + GM1-containing liposome) (Homo sapiens, UniProt P05067).
T1 construct: Human Aβ1-40 (cat. #4307-v, prepared by Peptide Institute); purchased Peptide Institute 4307-v
T1 sequence (P05067 672-711 limits assumed): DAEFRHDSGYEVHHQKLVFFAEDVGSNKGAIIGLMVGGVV
In words: Thioflavin T (ThT) assay of GAβ-dependent amyloid fibril formation (Aβ1-40 with GM1-containing liposome). Conditions: @25 μM; read-out: ThT Inhibitory activity (% inhibition). Format: biochemical. Put shortly:
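Human Aβ1-40 (75 μM stock) pre-incubated 10 min at room temperature with compound (75 or 15 μM solution), then GM1-containing cholesterol/sphingomyelin liposome added and incubated 37° C, 18 hours. Fibrils quantified by ThT fluorescence (ex 430/em 490 nm, pH 8.5 glycine buffer); inhibition as ratio to compound-free control.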
`O=C(N[C@@H](CO)c1nc(-c2c[nH]c3ncccc23)no1)c1ccc(F)cc1` [Compound 229, 4-fluoro-N-[(1S)-2-hydroxy-1-(3-{1H-pyrrolo[2,3-b]pyridin-3-yl}-1,2,4-oxadiazol-5-yl)ethyl]benzamide]: the inhibition at 25 µM stood at 71%.

The assay is the same for the next values; noted with them: final concentration of the compound 25 μM; ratio of ThT fluorescence intensity with/without compound; 37° C. for 18 hours; read-out: inhibition rate against amyloid fibril formation (inhibitory activity on a scale of A to C).
For the molecule `COc1ccc(-c2noc([C@@H](NC(=O)c3ccc(Cl)cc3)[C@@H](C)O)n2)cc1` [Compound 132, 4-chloro-N-((1S,2R)-2-hydroxy-1-(3-(4-methoxy-phenyl)-1,2,4-oxadiazol-5-yl)propyl)benzamide], the inhibition at 25 µM is above 80%.

Staying with this assay, now noted: inhibition rate against amyloid fibril formation, final concentration of the compound 25 μM.
As to `O=C(N[C@@H](CO)c1nc(-c2ccc(C(F)(F)F)cn2)no1)c1ccc(Cl)cc1` [Compound 205, 4-chloro-N-[(1S)-2-hydroxy-1-{3-[5-(trifluoromethyl)pyridin-2-yl]-1,2,4-oxadiazol-5-yl}ethyl]benzamide], the “Inhibitory activity ABC evaluation” value was “B (40% or more and less than 80% were evaluated as B)”. On the same count and under the same terms, with `Cl.O=C(N[C@@H](CO)c1nc(-c2ccc(C(F)(F)F)cn2)no1)c1ccc(Cl)cc1` [Compound 207, 4-chloro-N-[(1S)-2-hydroxy-1-{3-[5-(trifluoromethyl)pyridin-2-yl]-1,2,4-oxadiazol-5-yl}ethyl]benzamide hydrochloride] the entry was “A (80% or more was evaluated as A)”.

Staying with this assay, now noted: inhibition rate against amyloid fibril formation, final concentration of the compound 25 μM; read-out: Inhibitory activity ABC evaluation.
As for `C[C@H](O)[C@H](NC(=O)c1ccc(Cl)cc1)c1nc(-c2ccc(OC(F)(F)F)cc2)no1` [Compound 127, 4-chloro-N-((1S,2S)-2-hydroxy-1-(3-(4-(trifluoromethoxy)phenyl)-1,2,4-oxa-diazol-5-yl)propyl) benzamide], the inhibition at 25 µM was 40 to 80%. As for `O=C(N[C@@H](CO)c1nc(-c2ccc(C(F)(F)F)cc2)no1)c1ccc(F)c(Cl)c1` [Compound 195, 3-chloro-4-fluoro-N-[(1S)-2-hydroxy-1-{3-[4-(trifluoromethyl)phenyl]-1,2,4-oxadiazol-5-yl}ethyl]benzamide], the inhibition at 25 µM is above 80%. For the molecule `O=C(N[C@@H](CO)c1nc(-c2cc3cc(F)ccc3[nH]2)no1)c1ccc(F)cc1` [Compound 267, 4-fluoro-N-[(1S)-1-[3-(5-fluoro-1H-indol-2-yl)-1,2,4-oxadiazol-5-yl]-2-hydroxyethyl] benzamide], the inhibition at 25 µM is above 80%.

For the molecule `O=C(N[C@@H](CO)c1nc(-c2ccc(C(F)F)cc2)no1)c1ccccc1` [Compound 168, N-[(1S)-1-{3-[4-(difluoromethyl)phenyl]-1,2,4-oxadiazol-5-yl}-2-hydroxyethyl] benzamide], the inhibition at 25 µM was above 80%. `O=C(N[C@@H](CO)c1nc(-c2ncccn2)no1)c1ccc(F)cc1` [Compound 246, 4-fluoro-N-[(1S)-2-hydroxy-1-[3-(pyrimidin-2-yl)-1,2,4-oxadiazol-5-yl]ethyl]benzamide]: the inhibition at 25 µM was 40 to 80%. Take `O=C1CC(c2nc(-c3ccc(OC(F)(F)F)cc3)no2)CN1c1ccc(Cl)cc1` (stereo not drawn) [Compound 23, l-(4-chlorophenyl)-4-[3-{4-(trifluoromethoxy)phenyl}-1,2,4-oxadiazol-5-yl]pyrrolidin-2-one]: the inhibition at 25 µM fell in the range of 40 to 80%. Still for that read-out and setting: under `CNC(=O)C[C@H](NC(=O)c1ccc(Cl)cc1)c1nc(-c2ccc(OC(F)(F)F)cc2)no1` [Compound 88, (S)-4-chloro-N-(3-(methylamino)-3-oxo-1-[3-{4-(trifluoromethoxy)phenyl}-1,2,4-oxadiazol-5-yl]propyl) benzamide] stands below 40%; under `N#Cc1ccc(N2CC(c3nc(-c4ccc(O)cc4)no3)CC2=O)cc1` (stereo not shown) [Compound 79, 4-[4-{3-(4-hydroxyphenyl)-1,2,4-oxadiazol-5-yl}-2-oxopyrrolidin-1-yl]benzonitrile], below 40%; under `O=C(N[C@@H](CO)c1nc(-c2cc3ccccc3[nH]2)no1)c1ccc(F)cc1` [Compound 266, 4-fluoro-N-[(1S)-2-hydroxy-1-[3-(1H-indol-2-yl)-1,2,4-oxadiazol-5-yl]ethyl] benzamide], above 80%.

For `N#Cc1cccc(-c2nnc([C@@H](CO)NC(=O)c3ccc(Cl)cc3)o2)c1` [Compound 109, (R)-4-chloro-N-(1-(5-(3-cyanophenyl)-1,3,4-oxadiazol-2-yl)-2-hydroxyethyl) benzamide], the inhibition at 25 µM was below 40%. For `O=C(N[C@@H](CO)c1nc(-c2c[nH]c3ncccc23)no1)c1ccc(F)cc1` [Compound 229, 4-fluoro-N-[(1S)-2-hydroxy-1-(3-{1H-pyrrolo[2,3-b]pyridin-3-yl}-1,2,4-oxadiazol-5-yl)ethyl]benzamide], the inhibition at 25 µM is 40 to 80%. Consider `CN(C)c1ccc(C(=O)N[C@@H](CO)c2nc(-c3ccc(C(F)(F)F)cc3)no2)cc1` [Compound 209, 4-(dimethylamino)-N-[(1S)-2-hydroxy-1-{3-[4-(trifluoromethyl)phenyl]-1,2,4-oxadiazol-5-yl}ethyl]benzamide], for which the inhibition at 25 µM was above 80%.

On to `N[C@H](Cc1c[nH]c2ccccc12)c1nnc(-c2ccc(OC(F)(F)F)cc2)o1` [Compound 114, (R)-2-(1H-indol-3-yl)-1-(5-(4-(trifluoro-methoxy)phenyl)-1,3,4-oxadiazol-2-yl) ethan-1-amine], for which the inhibition at 25 µM is above 80%.

For `O=C(N[C@@H](CO)c1nc(-c2ccc(OC(F)(F)F)cc2)no1)c1cccc(F)c1` [Compound 94, (S)-3-fluoro-N-(2-hydroxy-1-[3-{4-(trifluoromethoxy)phenyl}-1,2,4-oxadiazol-5-yl]ethyl)benzamide], the inhibition at 25 µM was above 80%.

Take `O=C(N[C@@H](CO)c1nc(-c2cccc(C(F)(F)F)c2)no1)c1ccc(F)cc1` [Compound 176, 4-fluoro-N-[(1S)-2-hydroxy-1-{3-[3-(trifluoromethyl)phenyl]-1,2,4-oxadiazol-5-yl}ethyl] benzamide]: the inhibition at 25 µM was above 80%. Still for that read-out and setting: under `O=C(N[C@@H](CO)c1nc(-c2ccc(C(F)(F)F)cc2)no1)c1ccc(Cl)s1` [Compound 198, 5-chloro-N-[(1S)-2-hydroxy-1-{3-[4-(trifluoromethyl)phenyl]-1,2,4-oxadiazol-5-yl}ethyl]thiophene-2-carboxamide] stands above 80%; under `O=C(N[C@@H](CO)c1nc(-c2ccc(C(F)(F)F)cc2)no1)c1ccc2[nH]nnc2c1` [Compound 238, N-[(1S)-2-hydroxy-1-{3-[4-(trifluoromethyl)phenyl]-1,2,4-oxadiazol-5-yl}ethyl]-1H-1,2,3-benzotriazole-5-carboxamide], 40 to 80%; under `O=C1CC(CO)(c2nc(-c3ccc4c(c3)OC(F)(F)O4)no2)CN1c1ccc(Cl)cc1` (stereo not shown) [Compound 73, 1-(4-chlorophenyl)-4-[3-(2,2-difluorobenzo[d][1,3]dioxol-5-yl)-1,2,4-oxadiazol-5-yl]-4-(hydroxymethyl)pyrrolidin-2-one], above 80%. Same read-out and setting: under `O=C(N[C@@H](CO)c1nc(-c2cc3ccccc3s2)no1)c1ccc(F)cc1` [Compound 232, N-[(1S)-1-[3-(1-benzothiophen-2-yl)-1,2,4-oxadiazol-5-yl]-2-hydroxyethyl]-4-fluorobenzamide] stands above 80%; under `O=C(N[C@@H](CO)c1nc(-c2ccc(CF)cc2)no1)c1ccc(F)cc1` [Compound 161, 4-fluoro-N-[(1S)-1-{3-[4-(fluoromethyl)phenyl]-1,2,4-oxadiazol-5-yl}-2-hydroxyethyl] benzamide], 40 to 80%; under `O=C(N[C@@H](CO)c1nnc(-c2ccc(OC(F)(F)F)cc2)o1)c1ccc(F)cc1` [Compound 112, (S)-4-fluoro-N-(2-hydroxy-1-(5-(4-(tri-fluoromethoxy)phenyl)-1,3,4-oxadiazol-2-yl)ethyl)benzamide], 40 to 80%. Still for that read-out and setting: under `COc1ccc(-c2noc([C@@H](NC(=O)c3ccc(Cl)cc3)[C@@H](C)O)n2)cc1` [Compound 132, 4-chloro-N-((1S,2R)-2-hydroxy-1-(3-(4-methoxy-phenyl)-1,2,4-oxadiazol-5-yl)propyl)benzamide] stands above 80%; under `O=C(NC1(c2nc(-c3ccc(OC(F)(F)F)cc3)no2)CCCC1)c1ccc(Cl)nc1` [Compound 31, 6-chloro-N-(1-[3-{4-(trifluoromethoxy)phenyl}-1,2,4-oxadiazol-5-yl]cyclopentyl) nicotinamide], below 40%; under `O=C(Nc1ccc(Cl)cc1)NC1(c2nc(-c3ccc(OC(F)(F)F)cc3)no2)CCCC1` [Compound 36, 1-(4-chlorophenyl)-3-(1-[3-{4-(trifluoromethoxy)phenyl}-1,2,4-oxadiazol-5-yl]cyclopentyl)urea], below 40%. Consider `O=C1CC(c2nc(-c3ccncc3)no2)CN1c1ccc(Cl)cc1` (stereo not shown) [Compound 44, 1-(4-chlorophenyl)-4-{3-(pyridin-4-yl)-1,2,4-oxadiazol-5-yl} pyrrolidin-2-one], for which the inhibition at 25 µM is below 40%. Same read-out and setting: with `O=C(N[C@@H](CO)c1noc(-c2ccc(OC(F)(F)F)cc2)n1)c1ccc(Cl)cc1` [Compound 126, (R)-4-chloro-N-(2-hydroxy-1-(5-(4-(trifluoromethoxy)phenyl)-1,2,4-oxadiazol-3-yl)ethyl)benzamide] the figure was 40 to 80%. The same measure, in the same setting: under `O=C1CC(c2nc(-c3ccc(OC(F)(F)F)cc3)no2)CN1c1cccc(Cl)c1` (stereo not shown) [Compound 27, 1-(3-chlorophenyl)-4-{3-[4-(trifluoromethoxy)phenyl]-1,2,4-oxadiazole-5-yl}pyrrolidin-2-one] stands 40 to 80%; under `O=C(N[C@@H](CO)c1nc(-c2cccc(C(F)(F)F)c2)no1)c1cc2ccccc2[nH]1` [Compound 223, N-[(1S)-2-hydroxy-1-{3-[3-(trifluoromethyl)phenyl]-1,2,4-oxadiazol-5-yl}ethyl]-1H-indole-2-carboxamide], 40 to 80%.

In the case of `O=C1CC(c2nc(-c3ccc(F)cc3)no2)CN1c1ccc(Cl)cc1` (stereo not shown) [Compound 61, 1-(4-chlorophenyl)-4-{3-(4-fluorophenyl)-1,2,4-oxadiazol-5-yl} pyrrolidin-2-one], the inhibition at 25 µM is 40 to 80%. In the case of `O=C(c1ccc(Cl)cc1)N1CCC[C@H]1c1nc(-c2ccc(OC(F)(F)F)cc2)no1` [Compound 55, (S)-(4-chlorophenyl) (2-[3-{4-(trifluoro-methoxy)phenyl)-1,2,4-oxadiazol-5-yl}pyrrolidin-1-yl)methanone], the inhibition at 25 µM lay within 40 to 80%.
